# From US20050209441A1, “Process for promoting proper folding of human serum albumin using a human serum albumin ligand” (priority 2004, published 2005)
# Like-named read-outs stand apart in the source and are kept apart here.
# Target: human serum albumin (HSA) (Homo sapiens, UniProt P02768)
# Test: HSA refolding with ligand assistance (ED50 for refolding)
# Procedure: Sodium caprate is added to Solution B to a final concentration of 10 mM. Solution B is held at 37° C. for 1-5 minutes.
# Step C. […] Sodium caprate is added to Solution C to a final concentration of 10 mM. Solution C is held at 37° C. for a period of 30 minutes.
# Chain of human serum albumin (HSA) (P02768 25-609): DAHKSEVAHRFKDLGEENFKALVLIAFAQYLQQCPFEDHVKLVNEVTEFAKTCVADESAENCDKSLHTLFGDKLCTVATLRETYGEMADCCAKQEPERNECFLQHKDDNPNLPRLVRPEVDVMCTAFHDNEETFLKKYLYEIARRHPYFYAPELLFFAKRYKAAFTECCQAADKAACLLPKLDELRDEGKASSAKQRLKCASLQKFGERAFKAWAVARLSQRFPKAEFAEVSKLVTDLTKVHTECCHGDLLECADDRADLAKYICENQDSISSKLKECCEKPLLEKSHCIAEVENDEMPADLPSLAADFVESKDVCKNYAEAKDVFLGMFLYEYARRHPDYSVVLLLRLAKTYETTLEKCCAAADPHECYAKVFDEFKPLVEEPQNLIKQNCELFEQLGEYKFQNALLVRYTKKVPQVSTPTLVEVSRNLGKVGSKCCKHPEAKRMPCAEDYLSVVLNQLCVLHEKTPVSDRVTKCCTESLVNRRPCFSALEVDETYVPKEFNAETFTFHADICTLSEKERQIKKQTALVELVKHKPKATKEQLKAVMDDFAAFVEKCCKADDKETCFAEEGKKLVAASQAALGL
SMILES,Optimal Concentration (refolding ligand) (Table 1),EC50,Optimal Concentration (refolding ligand)
"CCCCO [1-Butanol (C4), 1-Butanol]",500 mM,–,–
"CCCCCCCCCCO [1-Decanol (C10), 1-Decanol]",3 mM,300 µM,–
"CCCCCC(=O)[O-].[Na+] [Na Caproate, sodium caproate]",>30 mM,–,–
"CCCCCCCCCCCC(=O)[O-].[Na+] [Na Laurate, sodium laurate]",1 mM,45 µM,–

# The remaining lines, values ahead:
Optimal Concentration (refolding ligand) (Table 1),EC50,Optimal Concentration (refolding ligand),SMILES
–,230 µM,0.3 mM (saturated),"CCCCCCCCCCCCO [1-Dodecanol (C12), 1-Dodecanol]"
25 mM,–,–,"CCCCCCO [1-Hexanol (C6), 1-Hexanol]"
3 mM,450 µM,–,"CCCCCCCCO [1-Octanol (C8), 1-Octanol]"
150 mM,–,–,"CCCCCO [1-Pentanol (C5), 1-Pentanol]"
–,800 µM,–,CCCCOC(=O)c1ccc(N)cc1 [n-butyl p-aminobenzoate]
